In PubChem BioAssay (NCI):
Where “and” joins values, the source holds several entries; their conditions need not be identical. Equal values may be shown once.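 Briefly, cells in 96-well plates were exposed to five compound concentrations for 48 h, and endpoints were estimated by linear interpolation. Here, GI50 denotes the concentration required for 50% inhibition of growth. TGI: total growth inhibition.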

Experiments:
Experiment in all cases: NCI anticancer screen, dose series, 48 h
EKVX NSCLC = system: EKVX NSCLC
HCT-116 colon = system: HCT-116 colon
HOP-62 NSCLC = system: HOP-62 NSCLC
IGROV1 ovarian = system: IGROV1 ovarian
OVCAR-8 ovarian = system: OVCAR-8 ovarian
SNB-75 CNS = system: SNB-75 CNS
T-47D breast = system: T-47D breast
U251 CNS = system: U251 CNS
KM20L2 colon = system: KM20L2 colon
LXFL 529 NSCLC = system: LXFL 529 NSCLC
M19-MEL melanoma = system: M19-MEL melanoma
SNB-78 CNS = system: SNB-78 CNS

## CNC(=O)OCc1c(COC(=O)NC)c(-c2ccc(Cl)c(Cl)c2)n2c1SCC2
EKVX NSCLC
  TGI: 72 µM
HCT-116 colon
  TGI: 26 µM
HOP-62 NSCLC
  TGI: 50.7 µM
IGROV1 ovarian
  GI50: 3.16 µM
  TGI: 26.9 µM
OVCAR-8 ovarian
  TGI: 39.8 µM
SNB-75 CNS
  TGI: 25.1 µM
T-47D breast
  TGI: 57.2 µM
U251 CNS
  TGI: 22.2 µM

## CSc1ccc(C2=NN(C(C)=O)C(c3cc(C)cs3)C2)cc1 (centres undefined)
EKVX NSCLC
  GI50: 24.3 µM
  TGI: > 100 µM
HCT-116 colon
  GI50: 20.4 µM
  TGI: 66.1 µM
HOP-62 NSCLC
  GI50: 37.3 µM
  TGI: > 100 µM
IGROV1 ovarian
  GI50: 29.7 µM
  TGI: > 100 µM
OVCAR-8 ovarian
  GI50: 32 µM
  TGI: > 100 µM
SNB-75 CNS
  GI50: 22.1 µM
  TGI: > 100 µM
T-47D breast
  GI50: 13 µM
  TGI: > 100 µM
U251 CNS
  GI50: 32.8 µM
  TGI: > 100 µM

## CC1CCC2(C(=O)O)CCC3(C)C(=CCC4C5(C)CC(O)C(O)C(C)(CO)C5C(O)CC43C)C2C1C (centres undefined)
EKVX NSCLC
  TGI: > 100 µM
HCT-116 colon
  TGI: > 24.3 µM
HOP-62 NSCLC
  TGI: > 83.7 µM
IGROV1 ovarian
  TGI: 35.9 µM
OVCAR-8 ovarian
  TGI: 42.6 µM
SNB-75 CNS
  TGI: 79.7 µM
T-47D breast
  TGI: > 84.7 µM
U251 CNS
  TGI: 45.5 µM

## OCc1ccc2[n+](c1)CCC1c3ccccc3NC21 (centres undefined)
EKVX NSCLC
  TGI: > 300 µM
HCT-116 colon
  TGI: > 300 µM
HOP-62 NSCLC
  TGI: > 300 µM
IGROV1 ovarian
  TGI: > 300 µM
KM20L2 colon
  TGI: > 300 µM
LXFL 529 NSCLC
  TGI: > 300 µM
M19-MEL melanoma
  TGI: > 300 µM
OVCAR-8 ovarian
  TGI: > 300 µM
U251 CNS
  TGI: > 300 µM

## O=C1/C(=C/c2ccc(Br)cc2)C=C(c2ccccc2)N1CCc1ccccc1
EKVX NSCLC
  GI50: 1.95 µM
  TGI: 19 µM
HCT-116 colon
  GI50: 0.394 µM
  TGI: 11.7 µM
HOP-62 NSCLC
  GI50: 0.347 µM
  TGI: 1.22 µM
IGROV1 ovarian
  GI50: 1.71 µM
  TGI: 12 µM
OVCAR-8 ovarian
  GI50: 1.04 µM
  TGI: 10 µM
SNB-75 CNS
  GI50: 0.66 µM
  TGI: 3.83 µM
T-47D breast
  GI50: 13.3 µM
  TGI: > 100 µM
U251 CNS
  GI50: 0.761 µM
  TGI: 10.1 µM

## COC(=O)CCCCN=Cc1c(O)c(O)c(C(C)C)c2cc(C)c(-c3c(C)cc4c(C(C)C)c(O)c(O)c(C=NCCCCC(=O)OC)c4c3O)c(O)c12
EKVX NSCLC
  GI50: 0.924 µM
  TGI: > 32.5 µM
HCT-116 colon
  GI50: 0.904 µM
  TGI: 4.98 µM
HOP-62 NSCLC
  GI50: 1.22 µM
  TGI: 9.21 µM
IGROV1 ovarian
  GI50: 1.41 µM
  TGI: > 32.5 µM
OVCAR-8 ovarian
  GI50: 0.959 µM
  TGI: > 32.5 µM
SNB-75 CNS
  GI50: 2.6 µM
  TGI: > 32.5 µM
T-47D breast
  GI50: 0.692 µM
  TGI: 8.04 µM
U251 CNS
  GI50: 0.58 µM
  TGI: 4.05 µM

## Cc1cc(I)cc(CNCCCN2CCSCC2)c1O
EKVX NSCLC
  GI50: 19.1 µM
  TGI: 50.3 µM
HCT-116 colon
  GI50: 11.1 µM
  TGI: 23 µM
HOP-62 NSCLC
  GI50: 14.3 µM
  TGI: 28.3 µM
IGROV1 ovarian
  GI50: 13.8 µM
  TGI: 29.7 µM
OVCAR-8 ovarian
  GI50: 17.4 µM
  TGI: 34 µM
SNB-75 CNS
  GI50: 13.7 µM
  TGI: 28.8 µM
T-47D breast
  GI50: 16 µM
  TGI: 40.6 µM
U251 CNS
  GI50: 16.4 µM
  TGI: 31 µM

## CCOC(=O)/C=C(/C(=O)OCC)n1cc(Cl)c(=O)n(CC(=O)OCC)c1=O
EKVX NSCLC
  GI50: 23.4 µM
  TGI: 10.3 µM and 53.1 µM
HCT-116 colon
  GI50: 13.7 µM
  TGI: 9.67 µM and 28 µM
HOP-62 NSCLC
  GI50: 30.8 µM
  TGI: 25 µM and 91.3 µM
IGROV1 ovarian
  GI50: 17.8 µM
  TGI: 9.25 µM and 37.1 µM
OVCAR-8 ovarian
  GI50: 12.6 µM
  TGI: 8.43 µM and 28.4 µM
SNB-75 CNS
  GI50: 16.6 µM
  TGI: 13 µM and 33.6 µM
T-47D breast
  GI50: 1.31 µM
  TGI: 18.9 µM and 4.28 µM
U251 CNS
  GI50: 21 µM
  TGI: 13.6 µM and 38.9 µM

## O=C1CNCCCN2CCN(CCCNCC(=O)Nc3ccc(cc3)S(=O)(=O)c3ccc(cc3)NC(=O)CNCCCN3CCN(CCCNCC(=O)Nc4ccc(cc4)S(=O)(=O)c4ccc(cc4)N1)CC3)CC2
EKVX NSCLC
  TGI: > 100 µM
HCT-116 colon
  TGI: > 80.4 µM
HOP-62 NSCLC
  TGI: > 63.7 µM
IGROV1 ovarian
  TGI: > 69.7 µM
OVCAR-8 ovarian
  TGI: > 56.9 µM
SNB-75 CNS
  TGI: > 100 µM
T-47D breast
  TGI: 97.2 µM
U251 CNS
  TGI: > 61.8 µM

## CCCCC/C(C=C(C#N)C#N)=C/c1ccccc1
EKVX NSCLC
  GI50: 5.98 µM
  TGI: > 55.7 µM
HCT-116 colon
  GI50: 1.95 µM
  TGI: 4.46 µM
HOP-62 NSCLC
  GI50: 6.98 µM
  TGI: 17.4 µM
IGROV1 ovarian
  GI50: 8.18 µM
  TGI: 27.7 µM
OVCAR-8 ovarian
  GI50: 3.34 µM
  TGI: > 100 µM
SNB-75 CNS
  GI50: 12.4 µM
  TGI: 27.7 µM
T-47D breast
  GI50: 4.93 µM
  TGI: 26.1 µM
U251 CNS
  GI50: 3.03 µM
  TGI: 14.1 µM

## COC(=O)C(/C(=N/NC(N)=O)C(=O)Nc1ccc(C)cc1)c1nc2ccc([N+](=O)[O-])cc2[nH]c1=O (centres undefined)
EKVX NSCLC
  TGI: > 100 µM
HCT-116 colon
  TGI: > 100 µM
HOP-62 NSCLC
  TGI: > 100 µM
IGROV1 ovarian
  TGI: > 100 µM
OVCAR-8 ovarian
  TGI: > 100 µM
SNB-75 CNS
  TGI: > 100 µM
T-47D breast
  TGI: > 100 µM
U251 CNS
  TGI: > 100 µM

## COc1ccc2ccc3c(c2c1)CN1CCc2cc(OC)c(OC)cc2C1C3 (centres undefined)
EKVX NSCLC
  TGI: > 100 µM
HOP-62 NSCLC
  TGI: > 100 µM
IGROV1 ovarian
  TGI: > 100 µM
KM20L2 colon
  TGI: > 100 µM
LXFL 529 NSCLC
  TGI: > 100 µM
OVCAR-8 ovarian
  TGI: > 100 µM
SNB-75 CNS
  TGI: 96.8 µM
SNB-78 CNS
  TGI: > 100 µM
U251 CNS
  TGI: > 100 µM

## COC(=O)c1cc2c3ccccc3[nH]c2c2ncccc12
EKVX NSCLC
  GI50: 11.5 µM
  TGI: > 100 µM
HCT-116 colon
  GI50: 54.9 µM
  TGI: > 100 µM
HOP-62 NSCLC
  GI50: 68.9 µM
  TGI: > 100 µM
IGROV1 ovarian
  GI50: 2.09 µM
  TGI: > 100 µM
OVCAR-8 ovarian
  GI50: 61.2 µM
  TGI: > 100 µM
SNB-75 CNS
  GI50: 17.3 µM
  TGI: 65.3 µM
T-47D breast
  GI50: 3.12 µM
  TGI: > 100 µM
U251 CNS
  GI50: 30.6 µM
  TGI: > 100 µM

## Cn1c(N2NC(=O)C(N=Nc3ccc(S(N)(=O)=O)cc3)C2=O)nc(-c2ccco2)c(C#N)c1=O (centres undefined)
EKVX NSCLC
  GI50: 35.7 µM
  TGI: > 50 µM
HCT-116 colon
  GI50: 15.4 µM
  TGI: > 50 µM
HOP-62 NSCLC
  GI50: > 50 µM
  TGI: > 50 µM
IGROV1 ovarian
  GI50: > 50 µM
  TGI: > 50 µM
OVCAR-8 ovarian
  GI50: > 50 µM
  TGI: > 50 µM
SNB-75 CNS
  GI50: 39.2 µM
  TGI: > 50 µM
T-47D breast
  GI50: 7.58 µM
  TGI: 19.7 µM
U251 CNS
  GI50: 42.3 µM
  TGI: > 50 µM

## CCCCC(=O)OCC1OC(n2cnc3c(=S)nc[nH]c32)C(OC(=O)CCCC)C1OC(=O)CCCC (centres undefined)
EKVX NSCLC
  TGI: > 100 µM
HCT-116 colon
  GI50: 2.15 µM
  TGI: > 100 µM
HOP-62 NSCLC
  GI50: 1.01 µM
  TGI: > 100 µM
IGROV1 ovarian
  GI50: 3.86 µM
  TGI: > 39.4 µM
OVCAR-8 ovarian
  GI50: 3.05 µM
  TGI: > 100 µM
SNB-75 CNS
  GI50: 0.213 µM
T-47D breast
  GI50: 1.17 µM
  TGI: > 59 µM
U251 CNS
  GI50: 13.4 µM
  TGI: > 100 µM

## Cc1ccc(S(=O)(=O)N(CCOc2ccc(/C(N)=N/Cl)cc2)CCOc2ccc(/C(N)=N\Cl)cc2)cc1
EKVX NSCLC
  GI50: 18.4 µM
  TGI: 93.2 µM
HCT-116 colon
  GI50: 12.7 µM
  TGI: > 100 µM
HOP-62 NSCLC
  GI50: 12 µM
  TGI: 33.2 µM
IGROV1 ovarian
  GI50: 11.7 µM
  TGI: 40.7 µM
OVCAR-8 ovarian
  GI50: 12 µM
  TGI: > 100 µM
SNB-75 CNS
  GI50: 4.92 µM
  TGI: 20.1 µM
T-47D breast
  GI50: 15.3 µM
  TGI: 81.7 µM
U251 CNS
  GI50: 3.91 µM
  TGI: 16.8 µM
